Activity calls are given as the source filed them. No cut-off for these calls is given here.
Tests used:
Mus musculus [1] = test: (§1) Cardioprotective activity in C57BL mouse model of left anterior descending coronary artery ligation-induced myocardial ischemia assessed as reduction in creatine kinase levels at 0.3 mg/kg, iv treated 1 hr after by left anterior descending coronary artery ligation and measured after 7 days post LAD; format: functional, organism-based
Mus musculus [2] = test: as §1, with “fibrosis” for “creatine kinase levels”, “after” for “after by”, “LAD by hematoxylin/eosin staining based light microscopy” for “LAD”; format: functional, organism-based
Cardiac muscle cell = test: Cytotoxicity against Sprague-Dawley rat cardiomyocytes assessed as reduction in cell viability at 50 uM; format: cell-based
[3] = molecular target: T1, Toll-like receptor 4 (Rattus norvegicus) (UniProt Q9QX05); test: Inhibition of TLR4 in Sprague-Dawley rat cardiomyocytes assessed as reduction in hypoxia-induced LDH release at 30 uM preincubated for 1 hr followed by hypoxia for 3 hrs by NADH detection based colorimetric analysis; format: cell-based
T1 sequence (whole entry): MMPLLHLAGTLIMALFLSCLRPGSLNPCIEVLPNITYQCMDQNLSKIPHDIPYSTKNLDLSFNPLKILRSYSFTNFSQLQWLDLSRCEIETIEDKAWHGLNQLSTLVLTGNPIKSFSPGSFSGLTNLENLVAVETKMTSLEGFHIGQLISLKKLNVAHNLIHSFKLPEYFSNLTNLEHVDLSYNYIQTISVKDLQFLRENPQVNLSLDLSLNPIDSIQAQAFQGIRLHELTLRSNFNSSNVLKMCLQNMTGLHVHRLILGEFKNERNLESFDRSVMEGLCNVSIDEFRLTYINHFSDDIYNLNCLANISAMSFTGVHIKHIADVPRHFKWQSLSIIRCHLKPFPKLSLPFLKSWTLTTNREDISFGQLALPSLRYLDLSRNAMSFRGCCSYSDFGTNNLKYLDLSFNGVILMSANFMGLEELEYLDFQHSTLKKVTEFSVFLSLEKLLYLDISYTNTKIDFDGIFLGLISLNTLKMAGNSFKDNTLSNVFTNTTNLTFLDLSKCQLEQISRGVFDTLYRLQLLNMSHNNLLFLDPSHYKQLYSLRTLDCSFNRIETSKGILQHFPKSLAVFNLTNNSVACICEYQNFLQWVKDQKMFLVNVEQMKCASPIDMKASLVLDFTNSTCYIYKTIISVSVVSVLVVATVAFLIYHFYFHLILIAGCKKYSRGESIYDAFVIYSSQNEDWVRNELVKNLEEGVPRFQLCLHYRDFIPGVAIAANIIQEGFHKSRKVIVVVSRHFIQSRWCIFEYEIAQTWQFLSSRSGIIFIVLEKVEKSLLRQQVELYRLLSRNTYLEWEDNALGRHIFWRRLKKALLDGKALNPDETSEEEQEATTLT

Mus musculus [4] = test: as §1, with “levels levels” for “levels”, “24 hrs” for “7 days”; format: functional, organism-based
[5] = molecular target: T1, Toll-like receptor 4 (Rattus norvegicus); test: Inhibition of TLR4 in Sprague-Dawley rat cardiomyocytes assessed as reduction in hypoxia-induced LDH release at 20 uM preincubated for 1 hr followed by hypoxia for 3 hrs by NADH detection based colorimetric analysis; format: cell-based
[6] = Reduction in hypoxia-induced TLR4 mRNA expression in Sprague-Dawley rat cardiomyocytes at 20 uM preincubated for 1 hr followed by hypoxia for 3 hrs by RT-qPCR analysis relative to untreated control; format: functional, Cardiac muscle cell
[7] = molecular target: T1, Toll-like receptor 4 (Rattus norvegicus); test: Inhibition of TLR4 in Sprague-Dawley rat cardiomyocytes assessed as reduction in hypoxia-induced creatine kinase levels at 10 uM preincubated for 1 hr followed by hypoxia for 3 hrs by NADP reduction based colorimetric analysis; format: cell-based
[8] = molecular target: T1, Toll-like receptor 4 (Rattus norvegicus); test: Inhibition of TLR4 in Sprague-Dawley rat cardiomyocytes assessed as reduction in hypoxia-induced IL-1beta mRNA expression at 20 uM preincubated for 1 hr followed by hypoxia for 3 hrs by RT-qPCR analysis; format: cell-based
Mus musculus [9] = test: Cardioprotective activity in C57BL mouse model of left anterior descending coronary artery ligation-induced myocardial ischemia assessed as reduction in serum LDH levels at 0.3 mg/kg, iv treated 1 hr after by left anterior descending coronary artery ligation and measured after 7 days post LAD; format: functional, organism-based
[10] = Reduction in hypoxia-induced TLR4 protein expression in Sprague-Dawley rat cardiomyocytes at 20 uM preincubated for 1 hr followed by hypoxia for 3 hrs by Western blot analysis relative to untreated control; format: functional, Cardiac muscle cell
[11] = molecular target: T1, Toll-like receptor 4 (Rattus norvegicus); test: Inhibition of TLR4 in Sprague-Dawley rat cardiomyocytes assessed as reduction in hypoxia-induced LDH release at 5 uM preincubated for 1 hr followed by hypoxia for 3 hrs by NADH detection based colorimetric analysis; format: cell-based
[12] = molecular target: T1, Toll-like receptor 4 (Rattus norvegicus); test: Inhibition of TLR4 in Sprague-Dawley rat cardiomyocytes assessed as reduction in hypoxia-induced TRAM protein expression at 20 uM preincubated for 1 hr followed by hypoxia for 3 hrs by Western blot analysis relative to untreated control; format: cell-based
[13] = molecular target: T1, Toll-like receptor 4 (Rattus norvegicus); test: Inhibition of TLR4 in Sprague-Dawley rat cardiomyocytes assessed as reduction in hypoxia-induced LDH release at 10 uM preincubated for 1 hr followed by hypoxia for 3 hrs by NADH detection based colorimetric analysis; format: cell-based
[14] = molecular target: T1, Toll-like receptor 4 (Rattus norvegicus); test: Binding affinity to TLR4 in Sprague-Dawley rat cardiomyocytes at 20 uM after 2 hrs by MS/MS-based pull down assay; format: cell-based
[15] = Hepatotoxicity in C57BL mouse model of left anterior descending coronary artery ligation-induced myocardial ischemia assessed as effect on serum AST levels at 0.05 to 1 mg/kg, iv pretreated for 1 hr followed by left anterior descending coronary artery ligation; format: toxicity, organism-based; conditions: in vivo
Mus musculus [16] = test: Cardioprotective activity in C57BL mouse model of left anterior descending coronary artery ligation-induced myocardial ischemia assessed as reduction in troponin levels at 0.3 mg/kg, iv pretreated for 1 hr followed by left anterior descending coronary artery ligation; format: functional, organism-based
Mus musculus [17] = test: Cardioprotective activity in C57BL mouse model of left anterior descending coronary artery ligation-induced myocardial ischemia assessed as reduction in creatine kinase levels at 0.3 mg/kg, iv pretreated for 1 hr followed by left anterior descending coronary artery ligation; format: functional, organism-based
Mus musculus [18] = test: Cardioprotective activity in C57BL mouse model of left anterior descending coronary artery ligation-induced myocardial ischemia assessed as reduction in heart infarct size at 0.3 mg/kg, iv pretreated for 1 hr followed by left anterior descending coronary artery ligation; format: functional, organism-based
Mus musculus [19] = test: as §1, with “leukocyte infiltration” for “creatine kinase levels”, “after” for “after by”, “LAD by hematoxylin/eosin staining based light microscopy” for “LAD”; format: functional, organism-based
[20] = molecular target: T1, Toll-like receptor 4 (Rattus norvegicus); test: Inhibition of TLR4 in Sprague-Dawley rat cardiomyocytes assessed as reduction in hypoxia-induced LDH levels by measuring NADH levels at 20 uM preincubated for 1 hr followed by induction of hypoxia measured after 3 hrs by colorimetric analysis; format: cell-based
[21] = molecular target: T1, Toll-like receptor 4 (Rattus norvegicus); test: Inhibition of TLR4 in hypoxia-induced Sprague-Dawley rat cardiomyocytes assessed as increase in IkappaB-alpha protein expression at 20 uM preincubated for 1 hr followed by hypoxia for 3 hrs by Western blot analysis relative to untreated control
[22] = molecular target: T1, Toll-like receptor 4 (Rattus norvegicus); test: Inhibition of TLR4 in Sprague-Dawley rat cardiomyocytes assessed as reduction in hypoxia-induced creatine kinase levels at 20 uM preincubated for 1 hr followed by induction of hypoxia measured after 3 hrs by NADP reduction based colorimetric analysis; format: cell-based

## CCCCCCCCNc1nc(=O)n(Cc2ccccc2)cc1C
Mus musculus [1]
  Activity: Active
Mus musculus [2]
  Activity: Active
Cardiac muscle cell
  Activity: Toxic
[3]
  inhibition: Active
Mus musculus [4]
  Activity: Active
[5]
  inhibition: Active
[6]
  fold change (FC): 3.1
[7]
  inhibition: Active
[8]
  fold change (FC): 15
Mus musculus [9]
  Activity: Active
[10]
  fold change (FC): 2.7
[11]
  inhibition: inactive
[12]
  fold change (FC): 2.8
[13]
  inhibition: Active
[14]
  Activity: Active
[15]
  Activity: Non-Toxic
Mus musculus [16]
  Activity: Active
Mus musculus [17]
  Activity: Active
Mus musculus [18]
  Activity: Active
Mus musculus [19]
  Activity: Active
[20]
  inhibition: Active
[21]
  fold change (FC): 3.3
[22]
  inhibition: Active

Source: ChEMBL document CHEMBL4382262, “Structurally Simple, Readily Available Peptidomimetic 1-Benzyl-5-methyl-4-( n-octylamino)pyrimidin-2(1 H)-one Exhibited Efficient Cardioprotection in a Myocardial Ischemia (MI) Mouse Model” (J Med Chem, 2018)
